In US11478478B2, “2,3-disubstituted 1-acyl-4-amino-1,2,3,4-tetrahydroquinoline derivatives and their use as bromodomain inhibitors” (GLAXOSMITHKLINE INTELLECTUAL PROPERTY (NO.2) LIMITED, priority 2013, dated 2022):

These molecules were tested on Bromodomains BRD2, BRD3, BRD4 and BRDT (assay: Binding of the fluoroligand to mutated versus non-mutated bromodomain). Details: single residue mutations in the acetyl lysine binding pocket.
Design: species or system Human
Description: Time Resolved Fluorescence Resonance Energy Transfer (TR-FRET) Assay Binding was assessed using a time resolved fluorescent resonance energy transfer binding assay. This utilises a 6 His purification tag at the N-terminal of the proteins as an epitope for an anti-6 His antibody labeled with Europium chelate (PerkinElmer AD0111) allowing binding of the Europium to the proteins which acts as the donor fluorophore. A small molecule, high affinity binder of the bromodomains BRD2, BRD3, BRD4 and BRDT has been labeled with Alexa Fluor647 (Reference Compound X) and this acts as the acceptor in the FRET pair.
The binding of the compounds of formula (I) to Bromodomains BRD2, BRD3, BRD4 and BRDT was assessed using mutated proteins to detect differential binding to either Binding Domain 1 (BD1) or Binding Domain 2 (BD2) on the bromodomain. These single residue mutations in the acetyl lysine binding pocket greatly lower the affinity of the fluoroligand (Reference Compound X) for the mutated domain (>1000 fold selective for the non-mutated domain). Therefore in the final assay conditions, binding of the fluoroligand to the mutated domain cannot be detected and subsequently the assay is suitable to determine the binding of compounds to the single non-mutated bromodomain. […]

Compound | selectivity of the fluoroligand for the non-mutated domain over the mutated domain [fold]
COc1ccc2c(c1)C(c1ccc(Cl)cc1)=N[C@@H](CC(=O)NCCCCCNC(=O)CCCCCC1(C)/C(=C/C=C/C=C/C3=[N+](CCCCS(=O)(=O)O)c4ccc(S(=O)(=O)O)cc4C3(C)C)N(CCCCS(=O)(=O)[O-])c3ccc(S(=O)(=O)O)cc31)c1nnc(C)n1-2 (stereo partly drawn) [Reference Compound X] | > 1000

The molecules below were run against T1, BRD4 BD2 (Homo sapiens, UniProt O60885, Y97A) (assay: TR-FRET binding assay, BRD4 BD2 (BD1-mutated protein)). Details: read-out: pIC50 in the BRD4 BD2 assay (converted).
T1 construct: BRD4 (1-477) (Y97A) and (Y390A); made in house; host or cells: E. coli (pET15b vector)
Outline: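 Displacement of Alexa Fluor647-labelled bromodomain ligand (at Kd) from 10 nM His-tagged BRD4 (1-477, Y97A) read by Eu-anti-His TR-FRET (665/615 ratio) in pH 7.4 HEPES buffer, 0.5% DMSO. Compound preincubated 30 min at rt, detection ≥30 min. pIC50 derived from four-parameter fit after normalisation to controls.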

IC50 [nM] | Compound
100 | CC(=O)N1c2ccc(F)cc2[C@H](Nc2nc(C)ccc2C(N)=O)[C@@H](C)[C@@H]1C [Example 528, 2-(((2S,3R,4R)-1-acetyl-6-fluoro-2,3-dimethyl-1,2,3,4-tetrahydroquinolin-4-yl)amino)-6-methylnicotinamide]
1000 to 100000 | CC(=O)N1c2ccc(F)cc2[C@H](Nc2ccnc(O)c2)[C@@H](C)[C@@H]1C1CC1 [Example 531, 1-((2S,3R,4R)-2-cyclopropyl-6-fluoro-4-((2-hydroxypyridin-4-yl)amino)-3-methyl-3,4-dihydroquinolin-1(2H)-yl)ethanone]
1000 to 100000 | CC(=O)N1c2ccc(F)cc2[C@H](Nc2cc(O)ccn2)[C@@H](C)[C@@H]1C1CC1 [Example 532, 1-((2S,3R,4R)-2-cyclopropyl-6-fluoro-4-((4-hydroxypyridin-2-yl)amino)-3-methyl-3,4-dihydroquinolin-1(2H)-yl)ethanone]
1000 to 100000 | CC(=O)N1c2ccc(F)cc2[C@H](Nc2ccc(O)nc2)[C@@H](C)[C@@H]1C1CC1 [Example 533, 1-((2S,3R,4R)-2-cyclopropyl-6-fluoro-4-((6-hydroxypyridin-3-yl)amino)-3-methyl-3,4-dihydroquinolin-1(2H)-yl)ethanone]
100 | CC(=O)N1c2ccc(C3=CCOCC3)cc2[C@H](Nc2ncccn2)[C@@H](C)[C@@H]1C1CC1 [Example 555, 1-((2S,3R,4R)-2-cyclopropyl-6-(3,6-dihydro-2H-pyran-4-yl)-3-methyl-4-(pyrimidin-2-ylamino)-3,4-dihydroquinolin-1(2H)-yl)ethanone]
100 | COCCn1cc(-c2ccc3c(c2)[C@H](Nc2nccc(C)n2)[C@@H](C)[C@H](C2CC2)N3C(C)=O)cn1 [Example 557, 1-((2S,3R,4R)-2-cyclopropyl-6-(1-(2-methoxyethyl)-1H-pyrazol-4-yl)-3-methyl-4-((4-methylpyrimidin-2-yl)amino)-3,4-dihydroquinolin-1(2H)-yl)ethanone]
100 | CC(=O)N1c2ccc(N3CCNCC3)cc2[C@H](Nc2ccc(C(N)=O)cc2)[C@@H](C)[C@@H]1C [Example 571, 4-(((2S,3R,4R)-1-acetyl-2,3-dimethyl-6-(piperazin-1-yl)-1,2,3,4-tetrahydroquinolin-4-yl)amino)benzamide]
100 | CC(=O)N1c2ccc(-c3cn[nH]c3)cc2[C@H](Nc2ncccn2)[C@@H](C)[C@@H]1C1CC1 [Example 581, 1-((2S,3R,4R)-2-cyclopropyyl-3-methyl-6-(1H-pyrazol-4-yl)-4-(pyrimidin-2-ylamino)-3,4-dihydroquinolin-1(2H)-yl)ethanone]
100 | CC(=O)N1c2ccc(-c3cn[nH]c3)cc2[C@H](Nc2nccc(C)n2)[C@@H](C)[C@@H]1C1CC1 [Example 582, 1-((2S,3R,4R)-2-cyclopropyl-3-methyl-4-((4-methylpyrimidin-2-yl)amino)-6-(1H-pyrazol-4-yl)-3,4-dihydroquinolin-1(2H)-yl)ethanone]
100 | CC(=O)N1c2ccc(-c3ncc[nH]3)cc2[C@H](Nc2ncccn2)[C@@H](C)[C@@H]1C1CC1 [Example 588, 1-((2S,3R,4R)-2-cyclopropyl-6-(1H-imidazol-2-yl)-3-methyl-4-(pyrimidin-2-ylamino)-3,4-dihydroquinolin-1(2H)-yl)ethanone]
100 | CC(=O)N1c2ccc(-c3nnc(C)s3)cc2[C@H](Nc2ncccn2)[C@@H](C)[C@@H]1C1CC1 [Example 590, 1-((2S,3R,4R)-2-cyclopropyl-3-methyl-6-(5-methyl-1,3,4-thiadiazol-2-yl)-4-(pyrimidin-2-ylamino)-3,4-dihydroquinolin-1(2H)-yl)ethanone]
